Measured values: ChEMBL document CHEMBL1129525 (J Med Chem, 1996)

Columns and labels:
[1] = system: Toxoplasma gondii; assay: Inhibitory activity against Toxoplasma gondii cell growth(ca denotes calculated value); format: functional, organism-based
[2] = target: T1, Bifunctional dihydrofolate reductase-thymidylate synthase (Toxoplasma gondii, UniProt Q07422)
T1 sequence (Q07422 whole entry): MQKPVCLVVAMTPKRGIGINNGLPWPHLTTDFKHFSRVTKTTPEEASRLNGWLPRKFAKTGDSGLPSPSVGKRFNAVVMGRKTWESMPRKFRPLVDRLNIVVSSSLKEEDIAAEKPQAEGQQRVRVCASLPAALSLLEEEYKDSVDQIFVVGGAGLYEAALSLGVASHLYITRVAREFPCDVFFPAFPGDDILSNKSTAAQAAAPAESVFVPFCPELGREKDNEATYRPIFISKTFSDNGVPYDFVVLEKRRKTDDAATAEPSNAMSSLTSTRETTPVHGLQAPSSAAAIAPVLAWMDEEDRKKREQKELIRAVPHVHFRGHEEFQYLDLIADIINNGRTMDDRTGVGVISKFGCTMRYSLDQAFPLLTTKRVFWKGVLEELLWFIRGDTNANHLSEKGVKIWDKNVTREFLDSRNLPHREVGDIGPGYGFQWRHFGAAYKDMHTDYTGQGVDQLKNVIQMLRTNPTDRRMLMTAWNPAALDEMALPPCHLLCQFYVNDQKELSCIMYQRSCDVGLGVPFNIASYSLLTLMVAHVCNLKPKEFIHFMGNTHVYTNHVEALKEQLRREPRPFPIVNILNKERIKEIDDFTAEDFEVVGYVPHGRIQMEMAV
Description: Inhibitory activity against Toxoplasma gondii dihydrofolate reductase

[3] = target: T2, Dihydrofolate reductase (Rattus norvegicus, UniProt Q920D2)
T2 sequence (Q920D2 whole entry): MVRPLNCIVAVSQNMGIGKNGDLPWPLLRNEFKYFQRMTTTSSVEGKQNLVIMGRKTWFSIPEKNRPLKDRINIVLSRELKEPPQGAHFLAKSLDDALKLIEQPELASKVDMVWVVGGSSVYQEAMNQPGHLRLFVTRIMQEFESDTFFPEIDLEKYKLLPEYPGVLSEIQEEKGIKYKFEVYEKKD
Description: Inhibitory activity against rat liver dihydrofolate reductase

[4] = system: Toxoplasma gondii; assay: Inhibition of Toxoplasma gondii cell growth; format: functional, organism-based
[5] = target: T3, Dihydrofolate reductase (Pneumocystis carinii, UniProt P16184)
T3 sequence (P16184 whole entry): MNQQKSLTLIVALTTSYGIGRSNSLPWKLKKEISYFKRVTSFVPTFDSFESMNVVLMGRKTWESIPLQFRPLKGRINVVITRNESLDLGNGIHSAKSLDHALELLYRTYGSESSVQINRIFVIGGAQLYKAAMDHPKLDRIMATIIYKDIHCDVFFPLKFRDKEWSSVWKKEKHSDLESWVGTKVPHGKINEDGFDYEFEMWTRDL
Description: Inhibitory activity against Pneumocystis carinii dihydrofolate reductase

Compound: COc1cc(NCc2ccc3nc(N)nc(N)c3c2C)cc(OC)c1OC [TRIMETREXATE]
- IC50 [1]: 20 nM

Compound: COc1ccc(C)cc1NCc1cnc2nc(N)nc(N)c2c1C
- IC50 [2]: 15 nM
- IC50 [3]: 160 nM
- IC50 [4]: 50 nM
- IC50 [5]: 68 nM

Compound: COc1ccc(N(C)Cc2cnc3nc(N)nc(N)c3c2C)c(OC)c1
- IC50 [2]: 53 nM
- IC50 [3]: 230 nM
- IC50 [4]: 300 nM
- IC50 [5]: 350 nM

Compound: Cc1c(CNc2cccc3c2CCCC3)cnc2nc(N)nc(N)c12
- IC50 [2]: 26 nM
- IC50 [3]: 130 nM
- IC50 [4]: 60 nM
- IC50 [5]: 100 nM

Compound: Nc1nc(N)c2cc(CNc3ccc(Cl)cc3)ccc2n1
- IC50 [2]: 75 nM
- IC50 [3]: 73 nM
- IC50 [4]: 10 nM
- IC50 [5]: 600 nM

Compound: Cc1c(CCc2cccc3ccccc23)cnc2nc(N)nc(N)c12
- IC50 [2]: 26 nM
- IC50 [3]: 135 nM
- IC50 [4]: 100 nM
- IC50 [5]: 64 nM

Compound: Nc1nc(N)c2nc(CSc3ccc(Cl)cc3)cnc2n1
- IC50 [2]: 16800 nM
- IC50 [3]: 14300 nM
- IC50 [4]: > 10000 nM
- IC50 [5]: 42100 nM

Compound: Nc1nc(N)c2nc(CNc3ccc(Cl)cc3)cnc2n1
- IC50 [2]: 590 nM
- IC50 [3]: 300 nM
- IC50 [4]: 700 nM
- IC50 [5]: 1500 nM
